Experiments:
[1] = species on record: Homo sapiens; experiment: Inhibition of recombinant full length human Aurora A I31F mutant assessed as residual activity at 10 uM using LRRASLG as substrate incubated for 40 mins in presence of [gamma-33ATP] by scintillation counting based radiometry assay relative to control
[2] = target: Cyclin-dependent kinase 5/CDK5 activator 1 (Homo sapiens) (UniProt Q00535+Q15078); experiment: Inhibition of recombinant full length human CDK5/p35 assessed as residual activity at 10 uM using histone H1 as substrate incubated for 40 mins in presence of [gamma-33ATP] by scintillation counting based radiometry assay relative to control; assay type: protein-complex assay
[3] = target: CDK9/cyclin T1 (Homo sapiens) (UniProt O60563+P50750); experiment: Inhibition of recombinant full length human CDK9/cyclinT1 assessed as residual activity at 10 uM using KTFCGTPEYLAPE as substrate incubated for 40 mins in presence of [gamma-33ATP] by scintillation counting based radiometry assay relative to control; assay type: protein-complex assay
[4] = target: Cyclin-dependent kinase-like 3 (Homo sapiens) (UniProt Q8IVW4); experiment: Inhibition of recombinant full length human CDKL3 assessed as residual activity at 10 uM using RRRFRPASPLRGPPK as substrate incubated for 120 mins in presence of [gamma-33ATP] by scintillation counting based radiometry assay relative to control
Sequence of Cyclin-dependent kinase-like 3 (Homo sapiens) (Q8IVW4 whole entry, looked up, the tested form may be a part, canonical isoform): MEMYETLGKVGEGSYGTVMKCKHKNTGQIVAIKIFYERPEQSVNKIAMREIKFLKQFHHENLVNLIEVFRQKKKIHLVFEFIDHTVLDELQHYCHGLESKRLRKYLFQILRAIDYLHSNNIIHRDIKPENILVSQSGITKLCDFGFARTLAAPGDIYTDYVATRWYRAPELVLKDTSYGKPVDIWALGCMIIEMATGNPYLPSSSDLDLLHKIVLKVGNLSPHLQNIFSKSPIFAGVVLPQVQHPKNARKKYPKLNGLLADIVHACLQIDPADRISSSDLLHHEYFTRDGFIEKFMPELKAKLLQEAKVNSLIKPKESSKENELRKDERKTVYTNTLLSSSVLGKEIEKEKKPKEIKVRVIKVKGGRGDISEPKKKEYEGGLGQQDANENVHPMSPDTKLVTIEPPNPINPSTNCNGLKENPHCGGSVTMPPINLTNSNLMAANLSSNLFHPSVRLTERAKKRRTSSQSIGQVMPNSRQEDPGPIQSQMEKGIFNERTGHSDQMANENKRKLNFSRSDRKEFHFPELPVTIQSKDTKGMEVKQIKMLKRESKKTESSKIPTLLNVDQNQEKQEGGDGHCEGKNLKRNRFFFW

[5] = system: Casein kinase I isoform gamma-3 (Homo sapiens), Q9Y6M4 [UNDEFINED MUTATION]; experiment: Inhibition of recombinant human CK1gamma3 K91E/R174G/E302D mutant (1 to 330 residues) assessed as residual activity at 10 uM using KRRRALS(p)VASLPGL as substrate incubated for 40 mins in presence of [gamma-33ATP] by scintillation counting based radiometry assay relative to control
Sequence of Casein kinase I isoform gamma-3 (Homo sapiens), Q9Y6M4 [UNDEFINED MUTATION] (Q9Y6M4 whole entry, looked up, stated change not applied, the tested form may be a part, canonical isoform): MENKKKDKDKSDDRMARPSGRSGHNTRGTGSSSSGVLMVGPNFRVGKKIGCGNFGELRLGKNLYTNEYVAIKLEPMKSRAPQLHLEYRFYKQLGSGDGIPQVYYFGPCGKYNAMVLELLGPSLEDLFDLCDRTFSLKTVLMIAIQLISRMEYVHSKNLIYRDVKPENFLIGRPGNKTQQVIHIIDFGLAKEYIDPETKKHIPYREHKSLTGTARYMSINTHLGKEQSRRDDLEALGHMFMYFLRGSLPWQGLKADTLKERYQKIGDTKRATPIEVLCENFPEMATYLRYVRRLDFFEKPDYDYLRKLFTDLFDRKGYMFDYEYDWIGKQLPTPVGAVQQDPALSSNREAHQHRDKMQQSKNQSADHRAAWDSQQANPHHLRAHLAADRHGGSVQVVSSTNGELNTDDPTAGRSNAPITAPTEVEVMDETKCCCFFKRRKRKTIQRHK

[6] = target: Dual specificity protein kinase CLK1 (Homo sapiens) (UniProt P49759); experiment: Inhibition of recombinant human CLK1 (130 to end residues) assessed as residual activity at 10 uM using ERMRPRKRQGSVRRRV as substrate incubated 40 mins in presence of [gamma-33ATP] by scintillation counting based radiometry assay relative to control
[7] = target: MAP kinase-interacting serine/threonine-protein kinase 2 (Homo sapiens) (UniProt Q9HBH9); experiment: Inhibition of recombinant human MNK2 assessed as residual activity at 10 uM using myelin basic protein as substrate incubated for 40 mins in presence of [gamma-33ATP by scintillation counting based radiometry assay relative to control
[8] = target: Serine/threonine-protein kinase 26 (Homo sapiens) (UniProt Q9P289); experiment: Inhibition of recombinant human MST4 (4 to 304 residues) assessed as residual activity at 10 uM using RLGRDKYKTLRQI as substrate measured after 40 mins in presence of [gamma33P]ATP by scintillation counting based radiometry assay relative to control
Sequence of Serine/threonine-protein kinase 26 (Homo sapiens) (Q9P289 2-416 limits assumed): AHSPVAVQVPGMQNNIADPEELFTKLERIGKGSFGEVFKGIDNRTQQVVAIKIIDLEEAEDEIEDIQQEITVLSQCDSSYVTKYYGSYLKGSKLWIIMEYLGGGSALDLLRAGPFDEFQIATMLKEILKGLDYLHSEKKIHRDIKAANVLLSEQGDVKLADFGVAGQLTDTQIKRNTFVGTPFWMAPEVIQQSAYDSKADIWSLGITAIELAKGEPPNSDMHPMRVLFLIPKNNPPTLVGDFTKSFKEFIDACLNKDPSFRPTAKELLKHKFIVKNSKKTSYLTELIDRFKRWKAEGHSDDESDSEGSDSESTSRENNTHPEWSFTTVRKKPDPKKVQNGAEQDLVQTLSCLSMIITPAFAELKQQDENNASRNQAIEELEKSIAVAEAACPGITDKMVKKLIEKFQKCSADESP

[9] = target: Serine/threonine-protein kinase Nek2 (Homo sapiens) (UniProt P51955); experiment: Inhibition of recombinant full-length human NEK2 assessed as residual activity at 10 uM using myelin basic protein as substrate measured after 40 mins in presence of [gamma33P]ATP by scintillation counting based radiometry assay relative to control
Sequence of Serine/threonine-protein kinase Nek2 (Homo sapiens) (P51955 whole entry, the tested form may be a part): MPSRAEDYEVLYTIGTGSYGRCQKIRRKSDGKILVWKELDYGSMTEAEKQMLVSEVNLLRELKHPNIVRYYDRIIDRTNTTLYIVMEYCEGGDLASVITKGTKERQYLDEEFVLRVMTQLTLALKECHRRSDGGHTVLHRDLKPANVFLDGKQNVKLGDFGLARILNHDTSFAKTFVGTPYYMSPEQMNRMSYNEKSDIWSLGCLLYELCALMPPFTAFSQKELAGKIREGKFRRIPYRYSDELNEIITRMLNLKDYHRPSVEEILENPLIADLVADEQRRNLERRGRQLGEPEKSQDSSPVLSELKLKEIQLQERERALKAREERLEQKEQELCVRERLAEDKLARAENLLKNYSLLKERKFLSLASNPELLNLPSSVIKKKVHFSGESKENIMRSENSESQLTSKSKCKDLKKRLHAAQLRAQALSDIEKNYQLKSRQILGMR

[10] = target: Serine/threonine-protein kinase Nek9 (Homo sapiens) (UniProt Q8TD19); experiment: Inhibition of recombinant human NEK9 (1 to 324 residues) assessed as residual activity at 10 uM using myelin basic protein as substrate measured after 40 mins in presence of [gamma33P]ATP by scintillation counting based radiometry assay relative to control
[11] = target: Serine/threonine-protein kinase Nek11 (Homo sapiens) (UniProt Q8NG66); experiment: Inhibition of recombinant full length human NEK11 assessed as residual activity at 10 uM using myelin basic protein as substrate measured after 40 mins in presence of [gamma33P]ATP by scintillation counting based radiometry assay relative to control
[12] = target: PAS domain-containing serine/threonine-protein kinase (Homo sapiens) (UniProt Q96RG2); experiment: Inhibition of recombinant human PASK (995 to end residues) assessed as residual activity at 10 uM using KKLNRTLSFAEPG as substrate measured after 40 mins in presence of [gamma33P]ATP by scintillation counting based radiometry assay relative to control
[13] = species on record: Homo sapiens; experiment: Inhibition of recombinant full length human PKBalpha S478G mutant assessed as residual activity at 10 uM using GRPRTSSFAEGKK as substrate incubated for 40 mins in presence of [gamma33P]ATP by scintillation counting based radiometry assay relative to control
[14] = target: Protein kinase C alpha type (Homo sapiens) (UniProt P17252); experiment: Inhibition of recombinant human full length PKCalpha assessed as residual activity at 10 uM using histone H1 as substrate incubated for 40 mins in presence of [gamma33P]ATP by scintillation counting based radiometry assay relative to control
[15] = target: Protein kinase C beta type (Homo sapiens) (UniProt P05771); experiment: Inhibition of recombinant human PKCbeta1 (2 to end residues) assessed as residual activity at 10 uM using histone H1 as substrate incubated for 40 mins in presence of [gamma33P]ATP by scintillation counting based radiometry assay relative to control
Sequence of Protein kinase C beta type (Homo sapiens) (P05771 2-671 limits assumed): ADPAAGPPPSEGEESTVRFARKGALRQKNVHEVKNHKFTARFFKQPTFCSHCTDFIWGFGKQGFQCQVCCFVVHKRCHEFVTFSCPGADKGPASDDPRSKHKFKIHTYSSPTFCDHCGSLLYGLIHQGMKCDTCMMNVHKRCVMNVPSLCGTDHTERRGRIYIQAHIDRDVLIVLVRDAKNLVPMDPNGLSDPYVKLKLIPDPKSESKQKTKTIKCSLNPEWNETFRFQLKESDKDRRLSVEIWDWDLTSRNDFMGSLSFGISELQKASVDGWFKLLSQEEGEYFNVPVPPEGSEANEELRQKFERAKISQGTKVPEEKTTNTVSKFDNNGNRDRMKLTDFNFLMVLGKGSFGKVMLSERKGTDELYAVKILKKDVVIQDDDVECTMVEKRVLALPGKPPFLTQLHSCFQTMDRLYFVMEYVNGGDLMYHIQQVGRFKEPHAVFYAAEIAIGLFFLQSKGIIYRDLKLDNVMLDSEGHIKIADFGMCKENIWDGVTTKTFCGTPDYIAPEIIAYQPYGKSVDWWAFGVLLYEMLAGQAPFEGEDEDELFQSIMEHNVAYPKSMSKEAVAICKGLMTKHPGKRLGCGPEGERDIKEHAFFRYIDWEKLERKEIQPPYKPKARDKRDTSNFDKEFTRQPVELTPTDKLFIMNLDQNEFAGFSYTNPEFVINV

[16] = system: Serine/threonine-protein kinase D1 (Homo sapiens), Q15139 [UNDEFINED MUTATION]; experiment: Inhibition of recombinant full-length human PKCmu R135A mutant assessed as residual activity at 10 uM using KKLNRTLSVA as substrate incubated for 40 mins in presence of [gamma33P]ATP by scintillation counting based radiometry assay relative to control
[17] = target: Tyrosine-protein kinase receptor TYRO3 (Homo sapiens) (UniProt Q06418); experiment: Inhibition of recombinant human RSE (451 to end residues) assessed as residual activity at 10 uM using KVEKIGEGTYGVVYK as substrate incubated for 40 mins in presence of [gamma33P]ATP by scintillation counting based radiometry assay relative to control
[18] = target: Mitogen-activated protein kinase 14 (Homo sapiens) (UniProt Q16539); experiment: Inhibition of recombinant human full length SAPK2a assessed as residual activity at 10 uM using myelin basic protein as substrate incubated for 40 mins in presence of [gamma33P]ATP by scintillation counting based radiometry assay relative to control
Sequence of Mitogen-activated protein kinase 14 (Homo sapiens) (Q16539 whole entry): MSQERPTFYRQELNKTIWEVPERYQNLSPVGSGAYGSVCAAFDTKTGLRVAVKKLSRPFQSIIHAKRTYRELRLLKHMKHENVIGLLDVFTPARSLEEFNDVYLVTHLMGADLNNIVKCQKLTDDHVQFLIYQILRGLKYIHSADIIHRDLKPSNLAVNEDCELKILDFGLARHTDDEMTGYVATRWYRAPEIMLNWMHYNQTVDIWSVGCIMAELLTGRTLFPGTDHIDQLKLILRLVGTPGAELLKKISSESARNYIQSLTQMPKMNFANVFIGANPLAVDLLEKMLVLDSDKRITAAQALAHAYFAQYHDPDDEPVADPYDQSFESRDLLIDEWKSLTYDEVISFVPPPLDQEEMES

[19] = target: Serine/threonine-protein kinase Sgk3 (Homo sapiens) (UniProt Q96BR1); experiment: Inhibition of recombinant human SGK3 (119 to end residues) assessed as residual activity at 10 uM using GRPRTSSFAEGKK as substrate incubated for 40 mins in presence of [gamma33P]ATP by scintillation counting based radiometry assay relative to control
Sequence of Serine/threonine-protein kinase Sgk3 (Homo sapiens) (Q96BR1 whole entry, the tested form may be a part): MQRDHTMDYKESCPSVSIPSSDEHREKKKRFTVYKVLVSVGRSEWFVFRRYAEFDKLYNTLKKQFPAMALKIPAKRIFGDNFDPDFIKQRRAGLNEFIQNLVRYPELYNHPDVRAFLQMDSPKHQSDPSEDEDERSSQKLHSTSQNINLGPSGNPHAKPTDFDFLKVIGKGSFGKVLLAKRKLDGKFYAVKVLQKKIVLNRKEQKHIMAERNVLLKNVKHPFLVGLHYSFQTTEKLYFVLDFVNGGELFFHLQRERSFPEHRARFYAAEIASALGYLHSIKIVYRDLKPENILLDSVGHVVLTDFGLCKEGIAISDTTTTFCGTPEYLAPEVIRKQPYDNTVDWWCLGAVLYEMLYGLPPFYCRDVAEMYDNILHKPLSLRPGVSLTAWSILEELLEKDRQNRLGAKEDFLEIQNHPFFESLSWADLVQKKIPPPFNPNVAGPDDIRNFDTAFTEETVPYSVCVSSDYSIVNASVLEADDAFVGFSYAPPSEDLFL

[20] = system: SNF-related serine/threonine-protein kinase (Homo sapiens), Q9NRH2 [UNDEFINED MUTATION]; experiment: Inhibition of human SNRK E97G/P116A mutant (65 to 409 residues) assessed as residual activity at 10 uM using KKLRRTLSFAEPG as substrate incubated for 40 mins in presence of [gamma33P]ATP by scintillation counting based radiometry assay relative to control
Sequence of SNF-related serine/threonine-protein kinase (Homo sapiens), Q9NRH2 [UNDEFINED MUTATION] (Q9NRH2 whole entry, looked up, stated change not applied, the tested form may be a part): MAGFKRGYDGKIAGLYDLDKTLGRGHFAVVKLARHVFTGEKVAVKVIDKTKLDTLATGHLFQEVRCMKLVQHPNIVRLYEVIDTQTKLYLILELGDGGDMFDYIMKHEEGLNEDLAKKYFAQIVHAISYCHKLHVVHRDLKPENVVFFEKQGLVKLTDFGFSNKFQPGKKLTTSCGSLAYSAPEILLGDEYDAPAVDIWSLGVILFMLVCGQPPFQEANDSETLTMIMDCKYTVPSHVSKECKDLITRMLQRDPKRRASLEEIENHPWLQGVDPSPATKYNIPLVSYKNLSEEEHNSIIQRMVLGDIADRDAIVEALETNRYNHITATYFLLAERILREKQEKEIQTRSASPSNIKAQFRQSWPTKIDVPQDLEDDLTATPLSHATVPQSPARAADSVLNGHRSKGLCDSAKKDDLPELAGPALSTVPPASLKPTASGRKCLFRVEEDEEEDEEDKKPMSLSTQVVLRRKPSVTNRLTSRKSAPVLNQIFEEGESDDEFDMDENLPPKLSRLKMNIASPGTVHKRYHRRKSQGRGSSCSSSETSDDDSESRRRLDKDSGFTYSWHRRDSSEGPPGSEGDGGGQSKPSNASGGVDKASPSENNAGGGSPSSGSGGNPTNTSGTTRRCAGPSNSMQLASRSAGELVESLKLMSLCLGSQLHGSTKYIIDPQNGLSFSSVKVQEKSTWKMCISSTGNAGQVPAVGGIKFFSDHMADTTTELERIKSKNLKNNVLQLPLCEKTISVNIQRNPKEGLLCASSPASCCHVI

[21] = target: Serine/threonine-protein kinase TAO2 (Homo sapiens) (UniProt Q9UL54); experiment: Inhibition of recombinant human TAO2 (1 to 320 residues) assessed as residual activity at 10 uM using myelin basic protein as substrate incubated for 40 mins in presence of [gamma33P]ATP by scintillation counting based radiometry assay relative to control

With `C[C@@H](c1ccccc1)n1nnc2cnc3ccc(-c4cnc5[nH]ccc5c4)cc3c21` the Activity [1] was 69%, the Activity [2] was 84% and the Activity [3] was 80%. The Activity [4] was 104%, the Activity [5] was 45% and the Activity [6] was 38%. The Activity [7] was 84%, the Activity [8] was 69% and the Activity [9] was 75%. The Activity [10] was 97%, the Activity [11] was 103% and the Activity [12] was 30%. For the same compound, the Activity [13] was 80%, the Activity [14] was 77% and the Activity [15] was 110%. For the same compound, the Activity [16] was 93%, the Activity [17] was 89% and the Activity [18] was 105%. For the same compound, the Activity [19] was 80%, the Activity [20] was 76% and the Activity [21] was 85%.
